Experimental data from BindingDB's records for doi:10.7270/Q2HQ3XCR (Nmmlsc, 2009).

What follows are molecules tested against T1, Bcl-2-related protein A1 (Homo sapiens, UniProt Q16548) (assay: Bfl-1/Bim complex disruptors – biochemical, multiplexed, bead-based flow cytometry, HTS hits, confirmation (AID 2080)). Details: not given.
T1 sequence (Q16548 whole entry): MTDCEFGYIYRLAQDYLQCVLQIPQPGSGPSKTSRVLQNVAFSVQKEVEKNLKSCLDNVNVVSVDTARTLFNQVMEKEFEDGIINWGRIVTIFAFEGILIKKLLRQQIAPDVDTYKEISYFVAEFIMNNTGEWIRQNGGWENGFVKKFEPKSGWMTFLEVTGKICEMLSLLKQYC

Row | Structure (SMILES) | EC50 [µM]
1 | CC(=O)Nc1ccc(-n2cc(-c3ccccc3)[nH]c2=S)cc1 [MLS001001946] | 2.05
2 | COc1ccccc1NC1=C(NC(C)=O)C(=O)c2ccccc2C1=O [N-[3-(2-methoxyanilino)-1,4-dioxonaphthalen-2-yl]acetamide] | 1.84
3 | O=C1C(Cl)=C(N2CCN(c3ccccc3[N+](=O)[O-])CC2)C(=O)c2ccccc21 | 2.68
4 | C=CS(=O)(=O)c1sc(Cl)c(N2CCOCC2)c1[N+](=O)[O-] [4-(2-chloranyl-5-ethenylsulfonyl-4-nitro-thiophen-3-yl)morpholine] | 3.57
5 | Oc1ccc(NCc2ccccc2OCc2ccccc2)cc1 [SMR000231540] | 8.06
6 | O=[N+]([O-])c1c(NCCCO)cc(Sc2nc3ccccc3s2)c2nonc12 [MLS000520994] | 0.26
7 | COc1ccc(N2C(=O)C(Cl)=C(Oc3cccc(OC)c3)C2=O)cc1 [3-chloro-4-(3-methoxyphenoxy)-1-(4-methoxyphenyl)-1H-pyrrole-2,5-dione] | 1.06
8 | CCN1C(=O)/C(=C\C=C2/C=CC=CN2CC)SC1=S [SMR000225150] | 2.32
9 | O=C(Nc1nnc(COc2ccc(Cl)cc2)s1)c1ccco1 [N-[5-[(4-chloranylphenoxy)methyl]-1,3,4-thiadiazol-2-yl]furan-2-carboxamide] | 3.09
10 | CN(CCO)c1cc(Sc2nc3ccccc3s2)c2nonc2c1[N+](=O)[O-] [MLS000520995] | 0.72
11 | COc1ccccc1-n1c(-c2ccccc2)c[nH]c1=S [MLS001007615] | 1.23
12 | COc1cc(/N=C2\SSNC2Cl)c(OC)cc1Cl (configuration not stated) [4-chloro-N-(4-chloro-2,5-dimethoxyphenyl)-5-dithiazolidinimine] | 5.78
13 | O=C(NCc1ccccc1)c1ccc2nc(-c3ccco3)c(-c3ccco3)nc2c1 [2,3-bis(furan-2-yl)-N-(phenylmethyl)quinoxaline-6-carboxamide] | 8.1
14 | Cc1cc(-c2cc(-c3ccc(Cl)cc3)nc(N)c2C#N)co1 [2-azanyl-6-(4-chlorophenyl)-4-(5-methylfuran-3-yl)pyridine-3-carbonitrile] | 4.92
15 | CC(=O)OCCCNc1cc(Sc2nc3ccccc3s2)c2nonc2c1[N+](=O)[O-] [MLS000521052] | 0.17
16 | Cc1cc2nn(-c3cccc4ccccc34)nc2cc1N [SMR000076237] | 1.51
17 | O=c1[nH]c(O)c(Cc2ccc(-c3cc(Cl)ccc3[N+](=O)[O-])o2)c(=O)[nH]1 | 0.81
18 | Cc1ccc(-c2cc(-c3ccc(C)o3)nc(N)c2C#N)cc1 [2-amino-6-(5-methylfuran-2-yl)-4-(4-methylphenyl)pyridine-3-carbonitrile] | 5.44
19 | CNC(CC(=O)c1ccc([N+](=O)[O-])cc1)C(Cl)(Cl)Cl (configuration not stated) [4,4,4-Trichloro-3-methylamino-1-(4-nitro-phenyl)-butan-1-one] | 3.97
20 | S=c1[nH]cc(-c2ccccc2)n1-c1ccccc1 [SMR000196363] | 3
21 | Cc1nnc(Sc2cc(NCCO)c([N+](=O)[O-])c3nonc23)s1 [2-[[7-[(5-methyl-1,3,4-thiadiazol-2-yl)thio]-4-nitro-2,1,3-benzoxadiazol-5-yl]amino]ethanol] | 0.82

Same assay, conditions: inactive by the depositor's call

Row | Structure (SMILES) | EC50 [µM]
22 | CCN(CC)c1ccc(NC(=O)c2ccccc2Br)cc1S(=O)(=O)Nc1ccccc1OC | 10.7
23 | Cc1ccc(-c2cc(-c3ccc(F)cc3)c(C#N)c(N)n2)o1 | 20
24 | CCN(CC)c1ccc(NC(=O)c2ccccc2F)cc1S(=O)(=O)Nc1ccccc1OC [SMR000241522] | 25.8
25 | Clc1nc(NCc2cccnc2)nc(N2CCOCC2)n1 [MLS000121154] | 20
26 | COc1ccc(CCNC(=O)c2ccc3nc(-c4ccco4)c(-c4ccco4)nc3c2)cc1OC [N-[2-(3,4-dimethoxyphenyl)ethyl]-2,3-di-2-furylquinoxaline-6-carboxamide] | 15.4
27 | O=C1C(=Cc2ccco2)NC(=S)N1c1ccccc1 [(5E)-5-(furan-2-ylmethylidene)-3-phenyl-2-sulfanylideneimidazolidin-4-one] | 17.4
